Results as given in the supplement of paper PMC10307832.

Assays:
Experiment in all cases: relative viability (nuclei count vs DMSO), 5 days (fraction); higher = more cells survive
Kobe2602 + AZD7762 = compound: C1=CC(=CC=C1NC(=S)NNC2=C(C=C(C=C2[N+](=O)[O-])C(F)(F)F)[N+](=O)[O-])F [Kobe2602] + NC(=O)Nc1cc(-c2cccc(F)c2)sc1C(=O)N[C@H]1CCCNC1 [AZD7762] (partner 0.2 µM)
How it was run: (§1)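 Relative viability equals treated-well nuclei counts divided by vehicle-well nuclei counts. Counts came from 4× images of lung cancer cell lines grown in 1536-well plates for 5 days after pin-tool dosing on the day after seeding. Dosing used one drug alone or a fixed anchor-drug dose plus five library-drug doses (not always all listed) in √10 steps, and values are medians of duplicate plates.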

[1] = compound: COc1cc2nccc(Oc3ccc(NC(=O)C4(C(=O)Nc5ccc(F)cc5)CC4)cc3)c2cc1OC [Cabozantinib] + CC(=O)c1c(C)c2cnc(Nc3ccc(N4CCNCC4)cn3)nc2n(C2CCCC2)c1=O [Palbociclib] (partner 0.5 µM)
How it was run: as §1

Zosuquidar + Palbociclib = compound: O[C@@H](COc1cccc2ncccc12)CN1CCN([C@@H]2c3ccccc3[C@@H]3[C@H](c4ccccc42)C3(F)F)CC1 [Zosuquidar] + CC(=O)c1c(C)c2cnc(Nc3ccc(N4CCNCC4)cn3)nc2n(C2CCCC2)c1=O [Palbociclib] (partner 0.5 µM)
How it was run: as §1

Kobe2602 + Navitoclax = compound: C1=CC(=CC=C1NC(=S)NNC2=C(C=C(C=C2[N+](=O)[O-])C(F)(F)F)[N+](=O)[O-])F [Kobe2602] + CC1(C)CCC(c2ccc(Cl)cc2)=C(CN2CCN(c3ccc(C(=O)NS(=O)(=O)c4ccc(N[C@H](CCN5CCOCC5)CSc5ccccc5)c(S(=O)(=O)C(F)(F)F)c4)cc3)CC2)C1 [Navitoclax] (partner 0.5 µM)
How it was run: as §1

Row | Cell Line | relative viability (Kobe2602 + AZD7762; first compound 0.2 µM) | relative viability (Kobe2602 + AZD7762; first compound 0.6325 µM) | relative viability (Kobe2602 + AZD7762; first compound 2 µM) | relative viability (Kobe2602 + AZD7762; first compound 6.325 µM) | relative viability (Kobe2602 + AZD7762; first compound 20 µM) | relative viability ([1]; first compound 0.02 µM) | relative viability ([1]; first compound 0.06325 µM) | relative viability ([1]; first compound 0.2 µM) | relative viability ([1]; first compound 0.6325 µM) | relative viability ([1]; first compound 2 µM) | relative viability (Zosuquidar + Palbociclib; first compound 0.01 µM) | relative viability (Zosuquidar + Palbociclib; first compound 0.03162 µM) | relative viability (Zosuquidar + Palbociclib; first compound 0.3162 µM) | relative viability (Zosuquidar + Palbociclib; first compound 1 µM) | relative viability (Zosuquidar + Palbociclib; first compound 0.1 µM) | relative viability (Kobe2602 + Navitoclax; first compound 0.2 µM) | relative viability (Kobe2602 + Navitoclax; first compound 0.6325 µM) | relative viability (Kobe2602 + Navitoclax; first compound 2 µM) | relative viability (Kobe2602 + Navitoclax; first compound 6.325 µM) | relative viability (Kobe2602 + Navitoclax; first compound 20 µM)
1 | SW 900 | 0.7 | 0.551 | 0.496 | 0.657 | 0.595 | 0.585 | 0.601 | 0.436 | 0.55 | 0.492 | 0.568 | 0.558 | 0.665 | 0.596 | – | – | – | – | – | –
2 | NCI-H358 | 0.608 | 0.486 | 0.522 | 0.618 | 0.552 | 0.112 | 0.138 | 0.163 | 0.135 | 0.135 | 0.119 | 0.148 | 0.16 | 0.136 | 0.132 | – | – | – | – | –
3 | PC-3 [JPC-3] | 0.872 | 0.913 | 0.603 | 0.823 | 0.835 | 0.574 | 0.559 | – | 0.514 | 0.636 | 0.554 | 0.52 | 0.507 | 0.473 | 0.542 | 0.833 | 0.775 | 0.76 | 0.847 | 0.717
4 | NCI-H1651 | 0.442 | 0.447 | 0.462 | 0.41 | 0.429 | 0.512 | 0.561 | 0.52 | 0.495 | 0.495 | 0.509 | 0.537 | 0.508 | 0.511 | 0.489 | 1.11 | 1.08 | 1.18 | 1.03 | 1.02
5 | HCC-827 | 0.217 | 0.223 | 0.349 | 0.242 | 0.339 | 0.415 | 0.535 | – | 0.577 | 0.399 | 0.503 | 0.497 | 0.498 | 0.491 | 0.501 | 0.987 | 1.13 | 1.06 | 1.03 | 0.981
6 | HCC-366 | 0.22 | 0.269 | 0.312 | 0.183 | 0.421 | 0.491 | 0.503 | 0.399 | 0.364 | 0.451 | 0.322 | 0.402 | 0.394 | 0.338 | 0.355 | 1.07 | 0.98 | 0.832 | 1.06 | 1.06
7 | HARA | 0.304 | 0.266 | 0.477 | 0.356 | 0.379 | 0.323 | 0.29 | 0.218 | 0.344 | 0.263 | 0.324 | 0.18 | 0.245 | 0.299 | 0.304 | 1.22 | 1.19 | 1.16 | 1.06 | 1.11
8 | NCI-H520 | – | – | – | – | – | 0.266 | 0.245 | 0.268 | 0.228 | 0.203 | 0.201 | 0.195 | 0.179 | 0.208 | 0.198 | 0.99 | 1.08 | 1.03 | 1.07 | 0.988
9 | NCI-H1299 | – | – | – | – | – | – | – | – | – | – | – | – | – | – | – | 1.07 | 1.04 | 1.06 | 1.08 | 1.02
10 | SW 1573 | – | – | – | – | – | 0.422 | 0.456 | 0.364 | 0.39 | 0.308 | 0.44 | 0.4 | 0.405 | 0.372 | 0.541 | 1.05 | 1.14 | 0.96 | 1.02 | 0.946
11 | CAL-12T | 0.644 | 0.736 | 0.568 | 0.609 | 0.506 | 0.435 | 0.583 | 0.408 | 0.497 | 0.572 | 0.381 | 0.62 | 0.593 | 0.462 | 0.412 | 1.2 | 1.25 | 1.31 | 1.39 | 1.2
12 | COR-L 105 | – | – | – | – | – | 0.409 | 0.4 | 0.378 | 0.411 | 0.413 | 0.372 | 0.376 | 0.417 | 0.385 | 0.478 | 0.525 | 0.756 | 0.786 | 0.909 | 0.784
13 | NCI-H3122 | 0.984 | 0.963 | 0.935 | 1.09 | 1.04 | 0.183 | 0.179 | 0.168 | 0.192 | 0.211 | 0.177 | 0.195 | 0.213 | 0.197 | 0.18 | 1.05 | 0.971 | 1.02 | 1.02 | 1.03
14 | NCI-H2228 | – | – | – | – | – | 0.588 | 1.08 | 0.802 | 0.941 | 0.837 | 0.804 | 0.821 | 0.865 | 0.613 | 0.76 | 1.08 | 0.621 | 0.69 | 0.743 | 0.841
15 | RERF-LC-KJ | 0.883 | 0.973 | 1.02 | 0.881 | 0.894 | 1.03 | 1.2 | 0.652 | 0.568 | 1.07 | 1.1 | 1.07 | 1.1 | 1.14 | 1.06 | 0.804 | 0.993 | 0.856 | 0.971 | 0.858
16 | NCI-H441 | 1.1 | 1.11 | 1.13 | 1.13 | 1.06 | 0.157 | 0.286 | 0.181 | 0.23 | 0.184 | 0.239 | 0.223 | 0.281 | 0.242 | 0.216 | 0.602 | 0.807 | 0.601 | 0.575 | 0.679
17 | A549 | – | – | – | – | – | – | – | – | – | – | – | – | – | – | – | 1.26 | 1.21 | 1.22 | 1.11 | 1.17
18 | NCI-H2342 | 0.47 | 0.448 | 0.704 | 0.461 | 0.655 | 0.519 | 0.466 | 0.493 | 0.501 | 0.495 | 0.531 | 0.528 | 0.502 | 0.553 | 0.519 | – | – | – | – | –
19 | LCLC-97TM1 | 0.364 | 0.303 | 0.341 | 0.279 | 0.37 | 0.189 | 0.228 | 0.221 | 0.253 | 0.222 | 0.227 | 0.274 | 0.193 | 0.215 | – | 0.253 | 0.462 | 0.531 | 0.282 | 0.317
